{
  "source": "paper PMC3328449",
  "about": "“Inhibition of Diacylglycerol–Sensitive TRPC Channels by Synthetic and Natural Steroids” (PLoS ONE, 2012)",
  "key": {"A7r5 cells": {"system": "A7r5 cells", "test": "Fura-2 measurement of AVP-induced Ca2+ release in A7r5 cells", "format": "cell-based", "conditions": "10 µM, 5 min pre-incubation, calcium-free solution, 100 nM AVP", "method": "A7r5 cells (ATCC, Rockville, USA) were maintained in DMEM (with glutaMAX I, 4.5 g/l glucose and […] sodium pyruvate), supplemented with 10% (v/v) fetal bovine serum (PAA, Pasching, Austria). Cells grown on poly-L-lysine-coated 24-mm glass coverslips were loaded in cell culture medium supplemented with 2 µM fura-2 AM (30 min, 37°C) and subsequently allowed to de-esterify in standard extracellular solution (15 min, 37°C). Changes in [Ca^2+]i were measured using a monochromator-based imaging system (T.I.L.L. Photonics, Gräfelfing, Germany) mounted on an inverted Axiovert 200 microscope (Zeiss, Göttingen, Germany). Fluorescence was excited alternating at 340 nm and 380 nm, long-pass filtered at 440 nm and captured at 2 s intervals. The 340/380 nm excitation ratio of selected cell areas was calculated with T.I.L.L. vision 4.0 software (T.I.L.L. Photonics) after correction for background fluorescence."}, "hTRPC3": {"target": "T1, hTRPC3 (Homo sapiens, UniProt Q13507)", "T1 construct": "expressed in transfected cells", "T1 sequence (Q13507 1-848 isoform Q13507-3)": "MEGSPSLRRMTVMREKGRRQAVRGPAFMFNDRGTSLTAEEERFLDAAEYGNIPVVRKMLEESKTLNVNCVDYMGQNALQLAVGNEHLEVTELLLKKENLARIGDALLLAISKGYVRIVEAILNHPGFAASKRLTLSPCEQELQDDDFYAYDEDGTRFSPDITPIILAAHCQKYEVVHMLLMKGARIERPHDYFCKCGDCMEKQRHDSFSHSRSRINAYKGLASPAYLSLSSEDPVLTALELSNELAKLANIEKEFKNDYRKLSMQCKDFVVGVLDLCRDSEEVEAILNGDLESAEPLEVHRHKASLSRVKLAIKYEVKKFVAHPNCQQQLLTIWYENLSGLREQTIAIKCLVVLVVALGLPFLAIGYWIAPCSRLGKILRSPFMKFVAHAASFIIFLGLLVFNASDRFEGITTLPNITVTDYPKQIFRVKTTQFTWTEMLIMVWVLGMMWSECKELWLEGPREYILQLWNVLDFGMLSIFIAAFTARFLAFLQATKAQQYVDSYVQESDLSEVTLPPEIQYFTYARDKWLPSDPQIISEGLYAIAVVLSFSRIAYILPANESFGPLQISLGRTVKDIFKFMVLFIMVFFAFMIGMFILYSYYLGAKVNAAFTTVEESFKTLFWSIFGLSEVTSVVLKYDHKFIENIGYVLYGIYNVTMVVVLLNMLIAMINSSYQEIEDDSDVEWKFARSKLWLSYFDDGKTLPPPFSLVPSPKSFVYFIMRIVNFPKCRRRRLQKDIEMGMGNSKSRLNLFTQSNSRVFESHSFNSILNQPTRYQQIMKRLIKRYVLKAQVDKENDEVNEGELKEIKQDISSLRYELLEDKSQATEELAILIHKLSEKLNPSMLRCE", "test": "Whole-cell patch clamp, AlF4- evoked TRPC3 currents", "format": "cell-based", "conditions": "10 µM, AlF4- infusion", "source_text": "hTRPC3 (GenBank accession number NM_003305) was stably expressed in chinese hamster ovary (CHO) cells using a proprietary high expression vector (Steinbeis –Transferzentrum für Angewandte Biologische Chemie, Mannheim, Germany).\nThe whole-cell patch clamp technique was employed to measure ion currents from single cells. Heat-polished patch pipettes with resistances of 2–4 MΩ were pulled from borosilicate glass capillaries (Hilgenberg, Malsfeld, Germany) using a DMZ-Universal puller (Zeitz-Instruments, Munich, Germany) and filled with standard intracellular solution containing: 120 mM CsOH, 120 mM gluconic acid, 2 mM MgCl2, 3 mM CaCl2, 5 mM Cs4-BAPTA, 10 mM HEPES (pH 7.4 adjusted with gluconic acid). For agonist-independent stimulation of TRPC currents the intracellular solution was supplemented with 30 µM AlCl3 and 10 mM NaF and cells were infused with AlF4 ^− through the patch pipette. […]\nCells grown on poly-L-lysine-coated coverslips were continuously superfused with extracellular solution and substances were applied using an ALA BPS-8 perfusion system (ALA Scientific Instruments, Westbury, USA). […] Cells were held at −70 mV, and current-voltage (I–V) relationships were routinely measured every 2 or 3 s by applying voltage ramps (180 ms) from −100 mV to +80 mV. […]"}, "[1]": {"test": "Solubility in perfusate (remark)", "format": "physicochemical", "conditions": "aortic ring experiments; higher concentrations could not be tested"}, "rat aortic rings": {"system": "rat aortic rings", "test": "Isometric force measurement, relaxation of phenylephrine pre-contracted rat aortic rings", "conditions": "L-NAME treated, n = 6, read-out: EC50, vasorelaxation of pre-contracted aortic rings", "method": "Adult male Wistar-Unilever rats (8–11 weeks old; Harlan Winkelmann, Borchen, Germany) were sacrificed by decapitation. Thoracic aortas were excised quickly, transferred to cold (4°C), carbogen (95% O2 and 5% CO2) bubbled physiological salt solution (119 mM NaCl, 4.7 mM KCl, 1.2 KH2PO4, 1.2 mM MgSO4, 1.6 mM CaCl2, 25 mM NaHCO3, 11 mM glucose) and rinsed. After removal of connective tissue and perivascular fat aortas were dissected in 5 mm rings, connected to force transducers and equilibrated in carbogen bubbled physiological salt solution at 37°C for 15 min. Aortic rings were set at 1000 mg passive tension and contractile forces were then measured isometrically using standard bath procedures as described earlier. […]\nFor statistical analysis, analysis of variance was performed with Origin 6.0 software (Microcal Software Inc., Northampton, USA). […] IC50 were calculated with SigmaPlot (Systat software, San Jose, USA) using the sigmoidal Hill-model: f = 100 (C^n/(IC50 ^n+C^n)); where f is the inhibition, C is the applied drug concentration and n is the Hill coefficient. The half maximal effective concentration (EC50) of norgestimate-induced vasorelaxation was calculated analogously with R = y0+y1C^n/(EC50 ^n+C^n); where R is relaxation, yo and y1 are constants, C is the applied drug concentration and n is the Hill coefficient. Averaged data is expressed as means ± SEM."}},
  "data": [
    {"smiles": "C#C[C@]1(OC(C)=O)CC[C@H]2[C@@H]3CCC4=CC(=NO)CC[C@@H]4[C@H]3CC[C@@]21CC", "note": "(mixture of isomers) [norgestimate]", "values": [
      {"measurement": "Sensitivity of AVP-induced Ca2+ release", "setting": "A7r5 cells", "result": "not sensitive"},
      {"measurement": "Inhibition of TRPC3 currents", "setting": "hTRPC3", "result": "almost completely inhibited"},
      {"measurement": "Solubility", "setting": "[1]", "result": "limited solubility"},
      {"measurement": "EC50", "setting": "rat aortic rings", "result": 8.19, "unit": "µM"}
    ]}
  ]
}
